The values that follow come from paper PMC4412663, “Pathway for Biodegrading Microcystin-YR by Sphingopyxis sp. USTB-05” (PLoS ONE, 2015).

Data set [1] deals with Sphingopyxis sp. USTB-05. As to conditions: cited from earlier work.
The test system of data set [2] is crude enzymes (CEs) of Sphingopyxis sp. USTB-05. The conditions noted are these: cited from earlier work.
Data set [3] has the same test system. Briefly: Enzymatic biodegradation by crude enzymes (CEs) of Sphingopyxis sp. USTB-05. It is filed as in vitro ADME. Here is the method: At logarithmic growth phase of the third day, the culture solution of Sphingopyxis sp. USTB-05 was centrifuged at 8,000 r/min for 20 min, and then the supernatant was decanted. The pelleted cells were washed three times with 50 mmol/L phosphate buffer solution (PBS, pH 7.0). The harvested cells were resuspended in 20 mL PBS and disrupted using an ultrasonic disruptor with an output power of 600 W for 15 min at 4°C. The cell debris was removed by centrifugation at 12,000 r/min for 30 min. The supernatant was collected, and after handling by 3500 MWCO dialysis bag small molecules such as Tyr was removed, it was used as CEs in the enzymatic biodegradation of MC-YR and its protein profile was determined using sodium dodecyl sulfate-polyacrylamide gel electrophoresis (SDS-PAGE) on 12% polyacrylamide gel. […].
The total biodegradation reaction volume was 5 mL containing 14.8 mg/L MC-YR and 103.6 mg/L protein in PBS in a 10 mL centrifuge tube. The reaction was at 30°C with the shake rate of 200 r/min. […]
MC-YR and its enzymatic biodegradation products were firstly measured using a HPLC system (Shimadzu LC-10ATVP, Shimadzu Co., Ltd., Japan) with a ultraviolet (UV) Diode Array Detector at 238 nm and 230 nm using a Agilent TC-C18 column (4.6 mm×250 mm) (Agilent, 1200 series, USA). […]

For the substance microcystin-LR [MC-LR], in data set [1], the “time to total removal by USTB-05” value is at most 20 h. Also, the “time to total removal by CEs of USTB-05” value in data set [2] is at most 10 h.
For microcystin-RR [MC-RR], the “time to complete biodegradation by Sphingopyxis sp. USTB-05” value in data set [1] is at most 36 h.
With microcystin-YR [MC-YR], the “average biodegradation rate of MC-YR” value in data set [3] worked out at 1.5 mg/L per hour. Besides, in data set [3] (pH 7), the “time to complete removal of MC-YR by CEs” value was at most 10 h.
